Test results from patent publication US20090238810A1, “OPHTHALMIC COMPOSITION” (Menicon Co., Ltd., priority 2006, published 2009).

Columns and labels:
[1] = system: corneal epithelium of DE mice; test: Histopathologic study: corneal epithelial thickness in DE mice; format: in vivo, C57BL/6J mice
Experimental: (§1) C57BL/6J mice aged 10 to 12 weeks were used for studies. All the studies were performed in accordance with the ARVO Statement for the Use of Animals in Ophthalmic and Vision Research.
(§2) The mice were subcutaneously injected with 0.5 mg/0.2 ml of scopolamine hydrobromide four times a day for 5 days. Desiccating environmental stress was created by placing a mouse cage in a blower hood with continuous air flow blower (room temperature of […] and relative humidity of 60%±10%). Tear production of each mouse was evaluated before the treatment, and also evaluated on third and fifth days of the treatment.
(§3) During the desiccation treatment, one of the eyes of each mouse was treated with eye drops including ApoA1 (Sigma-Aldrich, Japan) or with eye drops including ApoA1 and D-pantethine (Sigma-Aldrich, Japan), while PBS was administrated to the other eye of each mouse as a control. 5 μl of the respective eye drops was administered four times a day during the desiccation treatment for five days. All the ophthalmic compositions were formulated in PBS, and the osmolarity and the pH value of the compositions were adjusted to 290 to 300 mOsm/L and pH 7.4, respectively. […] To prepare one liter of 0.01 M PBS, there are needed the followings:
Mice eyeballs were surgically excised, and fixed with neutral-buffered formalin (10%) and embedded in paraffin. Then, 5 μm thick histological sections were cut and stained with hematoxylin and eosin. […] Microphotometric measurement of the thickness was done by using OB-M, 1/100, micro, AX0001 (Olympus Optical Co. Ltd., Japan). The corneal epithelial thickness was measured to an accuracy of 10 μm.
In this EXAMPLE, there were used 6 to 8 corneas of each of the following groups of mice: (a) normal mice, (b) DE mice, (c) DE mice treated with 0.04 w/v % of ApoA1, and (d) DE mice treated with PBS.

[2] = system: corneal epithelium of DE mice; test: Corneal fluorescein staining in experimental mouse model of dry eye (DE mice); format: in vivo, C57BL/6J mice
Experimental: as §1, §2, §3
Corneal fluorescein staining was evaluated 10 minutes after topical application of 1 μL of 1% sodium fluorescein (Sigma-Aldrich, Japan) to mouse eyes, which were treated as described above, and examined under a light microscope (Leica Microsystems Inc., Deerfield, USA) and photographed with a digital camera (CAMEDIA, Olympus Optical Co. Ltd., Japan) fitted to the microscope.
In TABLES 2 and 3 below, X represents a ratio of an area which was subjected to a punctuate staining to a total area of a cornea.

[3] = DE mice, various concentrations

apolipoprotein A-1 [ApoA1]
most effective concentration of ApoA1, corneal epithelial thickness ([1]; 0.01, 0.04, 0.1 w/v % ApoA1 tested, DE mice (FIG. 15)): 0.1 w/v %
thinning of the cell layers accompanied by detachment of the corneal epithelium ([1]; DE mice treated with 0.04 w/v % ApoA1 vs PBS (FIGS. 12 and 13)): significantly greater in the PBS-treated eyes compared with the ApoA1-treated eyes
conclusion of corneal epithelial thickness experiments: restriction of thinning of corneal epithelium [1, 3]: extremely effective
most effective concentration of ApoA1, corneal staining scores ([2]; 0.01, 0.04 or 0.1 w/v % ApoA1 tested, DE mice (FIG. 10)): 0.1 w/v %
conclusion of corneal fluorescein staining experiments: effect on dry eye syndrome [2, 3]: significantly effective
average corneal staining score, less than that of the PBS group ([2]; eye drops 0.04 w/v % ApoA1, 5 μl four times a day for five days, six DE mice, other eye PBS (FIG. 8)): about 25%
effect on corneal epithelium erosion due to desiccation (grading scores and quantitative measurement) ([2]; eye drops 0.04 w/v % ApoA1, DE mice): protective effects
quantitative measurement of fluorescein stained area (NIH ImageJ), average score less than that of the PBS group ([2]; eye drops 0.04 w/v % ApoA1, DE mice, data not shown): 20%
